The values below are quoted from earlier work in patent US11622991B2, “Protocol for treatment of lupus nephritis” (Aurinia Pharmaceuticals Inc., priority 2017, dated 2023).

The test system of this series is lupus nephritis. The note with it: standard of care for LN; cited from earlier work.

`O=P1(N(CCCl)CCCl)NCCCO1` (centres unmarked) [cyclophosphamide]: the “partial remission, cases” value was “approximately 50%”.
As for `COc1c(C)c2c(c(O)c1C/C=C(\C)CCC(=O)OCCN1CCOCC1)C(=O)OC2` [mycophenolate mofetil], the “partial remission, cases” value is “approximately 50%”.
